In BindingDB's records for doi:10.1021/acsmedchemlett.0c00015 (The Genomics Institute of The Novartis Research Foundation, 2020):

Legend:
[1] = Inhibition of TYRO3 (unknown origin) transfected in mouse Ba/F3 cells assessed as reduction in cell viability incubated for 48 hrs by brightglo-luciferase reporter gene assay
[2] = Inhibition of FLT1 (unknown origin) transfected in mouse Ba/F3 cells assessed as reduction in cell viability incubated for 48 hrs by brightglo-luciferase reporter gene assay
[3] = Inhibition of TIE1 (unknown origin) transfected in mouse Ba/F3 cells assessed as reduction in cell viability incubated for 48 hrs by brightglo-luciferase reporter gene assay
[4] = Inhibition of KDR (unknown origin) transfected in mouse Ba/F3 cells assessed as reduction in cell viability incubated for 48 hrs by brightglo-luciferase reporter gene assay
[5] = Inhibition of IGF1R (unknown origin) transfected in mouse Ba/F3 cells assessed as reduction in cell viability incubated for 48 hrs by brightglo-luciferase reporter gene assay
[6] = Inhibition of INSR (unknown origin) transfected in mouse Ba/F3 cells assessed as reduction in cell viability incubated for 48 hrs by brightglo-luciferase reporter gene assay
[7] = Inhibition of FGFR4 (unknown origin) transfected in mouse Ba/F3 cells assessed as reduction in cell viability incubated for 48 hrs by brightglo-luciferase reporter gene assay
[8] = Inhibition of BLK (unknown origin) transfected in mouse Ba/F3 cells assessed as reduction in cell viability incubated for 48 hrs by brightglo-luciferase reporter gene assay
[9] = Inhibition of SYK (unknown origin) transfected in mouse Ba/F3 cells assessed as reduction in cell viability incubated for 48 hrs by brightglo-luciferase reporter gene assay
[10] = Inhibition of FGFR2 (unknown origin) transfected in mouse Ba/F3 cells assessed as reduction in cell viability incubated for 48 hrs by brightglo-luciferase reporter gene assay
[11] = Inhibition of NPM/ALK (unknown origin) transfected in mouse Ba/F3 cells assessed as reduction in cell viability incubated for 48 hrs by brightglo-luciferase reporter gene assay
[12] = Inhibition of MET (unknown origin) transfected in mouse Ba/F3 cells assessed as reduction in cell viability incubated for 48 hrs by brightglo-luciferase reporter gene assay
[13] = Inhibition of LYN (unknown origin) transfected in mouse Ba/F3 cells assessed as reduction in cell viability incubated for 48 hrs by brightglo-luciferase reporter gene assay
[14] = Inhibition of KIF5B-RET (unknown origin) transfected in mouse Ba/F3 cells assessed as reduction in cell viability incubated for 48 hrs by brightglo-luciferase reporter gene assay
[15] = Inhibition of ZAP70 (unknown origin) transfected in mouse Ba/F3 cells assessed as reduction in cell viability incubated for 48 hrs by brightglo-luciferase reporter gene assay
[16] = Inhibition of TEL/KDR (unknown origin) transfected in mouse Ba/F3 cells assessed as reduction in cell viability incubated for 48 hrs by brightglo-luciferase reporter gene assay
[17] = Inhibition of FGFR3 (unknown origin) transfected in mouse Ba/F3 cells assessed as reduction in cell viability incubated for 48 hrs by brightglo-luciferase reporter gene assay
[18] = Inhibition of ROS (unknown origin) transfected in mouse Ba/F3 cells assessed as reduction in cell viability incubated for 48 hrs by brightglo-luciferase reporter gene assay
[19] = Inhibition of BMX (unknown origin) transfected in mouse Ba/F3 cells assessed as reduction in cell viability incubated for 48 hrs by brightglo-luciferase reporter gene assay
[20] = Inhibition of SRC (unknown origin) transfected in mouse Ba/F3 cells assessed as reduction in cell viability incubated for 48 hrs by brightglo-luciferase reporter gene assay
[21] = Inhibition of PDGFRalpha (unknown origin) transfected in mouse Ba/F3 cells assessed as reduction in cell viability incubated for 48 hrs by brightglo-luciferase reporter gene assay
[22] = Inhibition of KIF5B-RET V804M mutant (unknown origin) transfected in mouse Ba/F3 cells assessed as reduction in cell viability incubated for 48 hrs by brightglo-luciferase reporter gene assay
[23] = Inhibition of RET (unknown origin) transfected in mouse Ba/F3 cells assessed as reduction in cell viability incubated for 48 hrs by brightglo-luciferase reporter gene assay
[24] = Inhibition of CCDC6/RET (unknown origin) transfected in human LC2/ad cells assessed as reduction in cell viability incubated for 6 days by CellTiter Glo assay
[25] = Inhibition of FLT3 (unknown origin) transfected in mouse Ba/F3 cells assessed as reduction in cell viability incubated for 48 hrs by brightglo-luciferase reporter gene assay
[26] = Inhibition of PDGFRbeta (unknown origin) transfected in mouse Ba/F3 cells assessed as reduction in cell viability incubated for 48 hrs by brightglo-luciferase reporter gene assay
[27] = Inhibition of RON (unknown origin) transfected in mouse Ba/F3 cells assessed as reduction in cell viability incubated for 48 hrs by brightglo-luciferase reporter gene assay
[28] = Inhibition of LCK (unknown origin) transfected in mouse Ba/F3 cells assessed as reduction in cell viability incubated for 48 hrs by brightglo-luciferase reporter gene assay
[29] = Inhibition of TRKA (unknown origin) transfected in mouse Ba/F3 cells assessed as reduction in cell viability incubated for 48 hrs by brightglo-luciferase reporter gene assay
[30] = Inhibition of MER (unknown origin) transfected in mouse Ba/F3 cells assessed as reduction in cell viability incubated for 48 hrs by brightglo-luciferase reporter gene assay
[31] = Inhibition of JAK2 (unknown origin) transfected in mouse Ba/F3 cells assessed as reduction in cell viability incubated for 48 hrs by brightglo-luciferase reporter gene assay
[32] = Inhibition of TRKB (unknown origin) transfected in mouse Ba/F3 cells assessed as reduction in cell viability incubated for 48 hrs by brightglo-luciferase reporter gene assay
[33] = Inhibition of FGR (unknown origin) transfected in mouse Ba/F3 cells assessed as reduction in cell viability incubated for 48 hrs by brightglo-luciferase reporter gene assay
[34] = Inhibition of FMS (unknown origin) transfected in mouse Ba/F3 cells assessed as reduction in cell viability incubated for 48 hrs by brightglo-luciferase reporter gene assay
[35] = Inhibition of TRKC (unknown origin) transfected in mouse Ba/F3 cells assessed as reduction in cell viability incubated for 48 hrs by brightglo-luciferase reporter gene assay
[36] = Inhibition of FGFR1 (unknown origin) transfected in mouse Ba/F3 cells assessed as reduction in cell viability incubated for 48 hrs by brightglo-luciferase reporter gene assay
[37] = Inhibition of KIT (unknown origin) transfected in mouse Ba/F3 cells assessed as reduction in cell viability incubated for 48 hrs by brightglo-luciferase reporter gene assay

COc1ccc(-c2cnn3c(N)c(-c4ccccc4)c(OC4CCN(C)CC4)nc23)cc1OC
IC50 [1]: > 11 µM
IC50 [2]: > 11 µM
IC50 [3]: > 11 µM
IC50 [4]: > 11 µM
IC50 [5]: > 11 µM
IC50 [6]: > 11 µM
IC50 [7]: > 11 µM
IC50 [8]: 0.52 µM
IC50 [9]: 7.6 µM
IC50 [10]: 3.7 µM
IC50 [11]: 8.3 µM
IC50 [12]: > 11 µM
IC50 [13]: 0.41 µM
IC50 [14]: 0.037 µM
IC50 [15]: > 11 µM
IC50 [16]: 1.4 µM
IC50 [17]: > 9.8 µM
IC50 [18]: > 11 µM
IC50 [19]: > 11 µM
IC50 [20]: 0.12 µM
IC50 [21]: 0.093 µM
IC50 [22]: 1.8 µM
IC50 [23]: 0.17 µM
IC50 [24]: 0.095 µM
IC50 [25]: 1.7 µM
IC50 [26]: 0.1 µM
IC50 [27]: > 11 µM
IC50 [28]: 0.11 µM
IC50 [29]: > 11 µM
IC50 [30]: > 11 µM
IC50 [31]: > 1.3 µM
IC50 [32]: > 11 µM
IC50 [33]: 0.098 µM
IC50 [34]: 0.4 µM
IC50 [35]: > 11 µM
IC50 [36]: > 5.6 µM

COc1ccc(-c2cnn3c(N)c(-c4ccccc4)c(OCCCN(C)C)nc23)cc1OC
IC50 [14]: 0.07 µM
IC50 [16]: 3 µM

CN1C(C)(C)CC(Nc2nc3c(-c4ccc(C(=O)N5C[C@@H]6C[C@H]5CO6)cc4)cnn3c(N)c2-c2ccccc2)CC1(C)C
IC50 [14]: 0.0054 µM
IC50 [16]: 1.3 µM
IC50 [24]: 0.016 µM

COc1ccc(-c2cnn3c(N)c(-c4ccccc4)c(OC4CCNCC4)nc23)cc1OC
IC50 [14]: 0.079 µM
IC50 [16]: 3.6 µM
IC50 [24]: 0.16 µM

COc1ccc(-c2cnn3c(N)c(-c4ccccc4)c(NCCCN(C)C)nc23)cc1OC
IC50 [14]: 0.056 µM
IC50 [16]: > 7.9 µM

COC(=O)Nc1ccc(-c2c(OC3CCN(C)CC3)nc3c(-c4ccc(OC)c(OC)c4)cnn3c2N)cc1
IC50 [1]: 3.7 µM
IC50 [2]: 3 µM
IC50 [3]: > 10 µM
IC50 [4]: 0.026 µM
IC50 [5]: > 7.5 µM
IC50 [6]: > 9.1 µM
IC50 [7]: 0.035 µM
IC50 [8]: 0.23 µM
IC50 [9]: 1.4 µM
IC50 [10]: 0.008 µM
IC50 [11]: 1.2 µM
IC50 [12]: > 11 µM
IC50 [13]: 0.067 µM
IC50 [14]: 0.006 µM
IC50 [15]: 9.1 µM
IC50 [17]: 0.43 µM
IC50 [18]: 5.5 µM
IC50 [19]: > 7.4 µM
IC50 [21]: 0.017 µM
IC50 [22]: 0.019 µM
IC50 [23]: 0.006 µM
IC50 [25]: 3.4 µM
IC50 [26]: 0.022 µM
IC50 [27]: 6 µM
IC50 [28]: 2.4 µM
IC50 [29]: 2.8 µM
IC50 [30]: 0.086 µM
IC50 [31]: 0.084 µM
IC50 [32]: 2.1 µM
IC50 [33]: 0.44 µM
IC50 [34]: 0.082 µM
IC50 [35]: 1.4 µM
IC50 [36]: 0.01 µM
IC50 [37]: 0.02 µM

COc1ccc(-c2cnn3c(N)c(-c4nccs4)c(OC4CCN(C)CC4)nc23)cc1OC
IC50 [1]: > 11 µM
IC50 [2]: > 11 µM
IC50 [3]: > 11 µM
IC50 [4]: 0.24 µM
IC50 [5]: 8.7 µM
IC50 [6]: > 10 µM
IC50 [7]: 4.4 µM
IC50 [8]: 8.2 µM
IC50 [9]: > 11 µM
IC50 [10]: 3 µM
IC50 [11]: > 11 µM
IC50 [12]: > 11 µM
IC50 [13]: 1.5 µM
IC50 [14]: 0.12 µM
IC50 [15]: > 11 µM
IC50 [17]: 4.9 µM
IC50 [18]: > 11 µM
IC50 [19]: > 11 µM
IC50 [20]: 2.4 µM
IC50 [21]: 0.009 µM
IC50 [22]: 0.61 µM
IC50 [23]: 0.21 µM
IC50 [25]: > 11 µM
IC50 [26]: 0.041 µM
IC50 [27]: > 11 µM
IC50 [28]: 1.2 µM
IC50 [29]: > 11 µM
IC50 [30]: > 8.7 µM
IC50 [31]: 3.8 µM
IC50 [32]: 0.77 µM
IC50 [33]: 4.1 µM
IC50 [34]: 4.3 µM
IC50 [35]: 0.5 µM
IC50 [36]: 3.1 µM
IC50 [37]: 1.6 µM

CN1C(C)(C)CC(Nc2nc3c(-c4ccc(C(=O)N5CCN(S(C)(=O)=O)CC5)cc4)cnn3c(N)c2-c2ccccc2)CC1(C)C
IC50 [14]: 0.0063 µM
IC50 [16]: 1.1 µM
IC50 [24]: 0.0062 µM

COC(=O)N1CCN(C(=O)c2ccc(-c3cnn4c(N)c(-c5ccccc5)c(NC5CC(C)(C)N(C)C(C)(C)C5)nc34)cc2)CC1
IC50 [14]: 0.0033 µM
IC50 [16]: 0.89 µM
IC50 [24]: 0.015 µM

COc1ccc(-c2cnn3c(N)c(-c4ccccc4)c(NC4CCN(C)CC4)nc23)cc1OC
IC50 [14]: 0.031 µM
IC50 [16]: 3.1 µM
IC50 [24]: 0.056 µM

COc1ccc(-c2cnn3c(N)c(-c4ccccc4)c(NC4CC(C)(C)N(C)C(C)(C)C4)nc23)cc1OC
IC50 [14]: 0.0017 µM
IC50 [16]: 0.99 µM
IC50 [24]: 0.0053 µM
